Active and inactive are the calls of the source. Bounds are passed on as bounds.

Data on 6 molecules can be found in ChEMBL document CHEMBL1201862, “PubChem BioAssay data set” (2004).

Test [1] deals with T1, Hexokinase HKDC1 (Homo sapiens, UniProt Q2TB90).
T1 sequence (Q2TB90 whole entry): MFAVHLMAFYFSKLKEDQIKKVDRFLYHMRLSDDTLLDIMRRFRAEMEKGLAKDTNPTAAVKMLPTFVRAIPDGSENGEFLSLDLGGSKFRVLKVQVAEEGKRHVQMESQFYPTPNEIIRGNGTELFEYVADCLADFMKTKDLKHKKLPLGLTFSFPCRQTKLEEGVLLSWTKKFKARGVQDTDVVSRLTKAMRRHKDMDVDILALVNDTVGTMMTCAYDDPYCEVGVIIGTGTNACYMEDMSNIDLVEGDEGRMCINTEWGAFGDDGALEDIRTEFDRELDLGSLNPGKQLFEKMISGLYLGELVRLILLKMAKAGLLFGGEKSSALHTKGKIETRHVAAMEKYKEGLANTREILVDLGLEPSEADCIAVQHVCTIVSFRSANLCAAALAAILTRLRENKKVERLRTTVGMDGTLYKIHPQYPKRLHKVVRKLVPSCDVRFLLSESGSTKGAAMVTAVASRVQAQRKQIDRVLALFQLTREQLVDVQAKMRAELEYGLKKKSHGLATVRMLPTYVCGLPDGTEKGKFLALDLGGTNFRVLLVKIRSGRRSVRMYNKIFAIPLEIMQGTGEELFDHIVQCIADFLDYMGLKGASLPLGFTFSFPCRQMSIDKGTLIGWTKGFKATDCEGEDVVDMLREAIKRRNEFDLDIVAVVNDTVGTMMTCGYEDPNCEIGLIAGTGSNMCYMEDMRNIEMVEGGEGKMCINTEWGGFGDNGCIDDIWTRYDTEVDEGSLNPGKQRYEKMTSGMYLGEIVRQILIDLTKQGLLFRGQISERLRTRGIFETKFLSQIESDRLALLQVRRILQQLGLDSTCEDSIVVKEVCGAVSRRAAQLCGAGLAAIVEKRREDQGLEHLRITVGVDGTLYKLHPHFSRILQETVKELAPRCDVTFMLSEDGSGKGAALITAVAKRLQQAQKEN
In words: inhibition of HKDC1 glucose phosphorylation – biochemical, W721R variant, dose response (AID 504729). Type of test: functional.

Test [2] has as its target G2/mitotic-specific cyclin-B1 (Homo sapiens, UniProt P14635). In words: Counterscreen assay for inhibitors of Wee1 degradation: dose response cell-based assay to identify inhibitors of cyclin B degradation. [Related pubchem assays: 1410, 1321 ]. Type of test: functional. In general terms: A counterscreen serves to expose hits that act by an unwanted route or on another target.

For another test, the system named is HeLa. In words: Cytotoxicity counterscreen assay for transcriptional activators of heat shock protein 70 (Hsp70). [Related pubchem assays: 1203, 1252 ]. Type of test: functional. As to conditions: Homo sapiens.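 Also: cells exposed to compound for 16 hours before readout.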
In test [3] the target is Interleukin-1 receptor-associated kinase 4 (Homo sapiens, UniProt Q9NWZ3). Type of test: functional.
Test [4] has as its target STE20-like serine/threonine-protein kinase (Homo sapiens, UniProt Q9H2G2). Type of test: functional.
Test [5] has as its target MAP kinase-activated protein kinase 3 (Homo sapiens, UniProt Q16644). Type of test: functional.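 Also: value comes from a kinome-wide profiling panel in which MAPKAPK3 is one of the panel members.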
The target of test [6] is Serine/threonine-protein kinase pim-3 (Homo sapiens, UniProt Q86V86). Type of test: functional.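 Also: value obtained as one member of a broad kinase panel profiling effort.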
Test [7] has as its target Serine/threonine-protein kinase BRSK1 (Homo sapiens, UniProt Q8TDC3). Type of test: functional.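 Also: measured within a kinome-wide kinase panel, with the target listed as KIAA1811.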
Test [8] addresses High affinity nerve growth factor receptor (Homo sapiens, UniProt P04629). Type of test: functional.
The target of test [9] is Cyclin-dependent kinase 5 (Homo sapiens, UniProt Q00535). Type of test: functional.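 Also: CDK5 measured as one member of a kinase profiling panel.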
The target of test [10] is Serine/threonine-protein kinase Nek2 (Homo sapiens, UniProt P51955). Type of test: functional.
Test [11] has as its target Tyrosine-protein kinase ITK/TSK (Homo sapiens, UniProt Q08881). Type of test: functional.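 Also: affinity for ITK measured as one member of a broad kinase panel profiling binding across the kinome.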
In test [12] the target is Ribosomal protein S6 kinase alpha-3 (Homo sapiens, UniProt P51812). Type of test: functional.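 Also: measured within a kinome-wide profiling panel.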
In test [13] the target is Testis-specific serine/threonine-protein kinase 1 (Homo sapiens, UniProt Q9BXA7). Type of test: functional.
Test [14] has as its target Rho-associated protein kinase 2 (Homo sapiens, UniProt O75116). Type of test: functional.
A further test deals with T2, Caspase-3 (Homo sapiens, UniProt P42574).
T2 sequence (P42574 whole entry): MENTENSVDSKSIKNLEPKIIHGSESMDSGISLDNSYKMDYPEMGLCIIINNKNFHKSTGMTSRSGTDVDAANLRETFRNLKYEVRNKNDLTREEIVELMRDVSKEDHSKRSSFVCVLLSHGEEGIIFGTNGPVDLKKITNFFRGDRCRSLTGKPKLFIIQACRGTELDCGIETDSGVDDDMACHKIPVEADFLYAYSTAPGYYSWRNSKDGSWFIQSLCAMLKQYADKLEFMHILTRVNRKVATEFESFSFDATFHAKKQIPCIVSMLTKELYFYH
In words: SAR Analysis of small molecule inhibitors of Sentrin-specific proteases (SENPs) using a Caspase-3 Selectivity assay. [Related pubchem assays (depositor defined):AID2540, AID2599, AID434973, AID489001]. Type of test: functional.

The target of test [15] is T3, Nuclear receptor subfamily 0 group B member 1 (Homo sapiens, UniProt P51843).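 Also: HEK293T cells transfected with SF-1 and DAX-1 plus StAR promoter luciferase reporter.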
T3 sequence (P51843 whole entry): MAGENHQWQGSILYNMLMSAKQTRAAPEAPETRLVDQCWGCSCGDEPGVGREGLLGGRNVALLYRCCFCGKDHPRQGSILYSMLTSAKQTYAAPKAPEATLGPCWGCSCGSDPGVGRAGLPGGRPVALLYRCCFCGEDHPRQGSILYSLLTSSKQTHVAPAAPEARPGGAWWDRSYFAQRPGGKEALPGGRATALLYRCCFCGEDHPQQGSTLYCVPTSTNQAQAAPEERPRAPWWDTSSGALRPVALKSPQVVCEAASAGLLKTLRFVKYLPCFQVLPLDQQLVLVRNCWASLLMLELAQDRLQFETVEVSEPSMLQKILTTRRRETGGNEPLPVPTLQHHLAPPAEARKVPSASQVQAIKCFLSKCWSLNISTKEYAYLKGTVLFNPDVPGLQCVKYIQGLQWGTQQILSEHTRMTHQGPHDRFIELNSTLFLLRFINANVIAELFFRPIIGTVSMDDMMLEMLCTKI
Type of test: functional, cell-based.

Test [16] deals with T1, Hexokinase HKDC1. In words: activation of HKDC1 glucose phosphorylation – biochemical, W721R variant, dose response (AID 504730). Type of test: functional.
Test [17] is described as follows: Luminescence Cell-Based Dose Response HTS to Identify Activators of Luciferase Translation or Activity in H4 […] Cells. [Related pubchem assays: 1829 (Project Summary), 1814 (Primary HTS)]. Type of test: functional.
Test [18] concerns the target Glucose-6-phosphate 1-dehydrogenase (Homo sapiens, UniProt P11413). In words: inhibition of Homo sapiens G6PD, dose series – biochemical, fluorescence, selectivity assay for P. falciparum G6PD inhibitor project, dose response (AID 504792). Type of test: functional.

Serine/threonine-protein kinase BRSK1, sequence (Q8TDC3 whole entry): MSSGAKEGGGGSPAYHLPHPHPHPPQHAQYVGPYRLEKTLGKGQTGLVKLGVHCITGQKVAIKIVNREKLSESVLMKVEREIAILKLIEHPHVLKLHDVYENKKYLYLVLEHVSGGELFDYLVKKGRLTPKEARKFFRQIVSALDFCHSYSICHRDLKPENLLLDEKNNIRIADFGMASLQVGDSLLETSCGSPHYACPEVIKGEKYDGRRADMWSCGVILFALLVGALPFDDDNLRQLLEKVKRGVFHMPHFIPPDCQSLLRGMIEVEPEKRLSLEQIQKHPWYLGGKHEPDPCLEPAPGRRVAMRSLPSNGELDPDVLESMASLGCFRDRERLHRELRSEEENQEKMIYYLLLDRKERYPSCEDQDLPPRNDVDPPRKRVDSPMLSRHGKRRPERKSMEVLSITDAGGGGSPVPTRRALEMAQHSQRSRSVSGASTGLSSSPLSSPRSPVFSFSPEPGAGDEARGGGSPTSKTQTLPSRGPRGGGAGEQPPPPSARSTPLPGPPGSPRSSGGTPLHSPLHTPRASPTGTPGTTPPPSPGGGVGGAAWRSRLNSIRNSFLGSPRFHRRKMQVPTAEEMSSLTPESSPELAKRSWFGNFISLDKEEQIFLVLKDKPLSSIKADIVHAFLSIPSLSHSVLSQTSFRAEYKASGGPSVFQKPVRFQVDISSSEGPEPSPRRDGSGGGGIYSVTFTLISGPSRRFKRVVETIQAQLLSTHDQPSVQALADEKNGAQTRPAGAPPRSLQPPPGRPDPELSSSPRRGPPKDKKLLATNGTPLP
Interleukin-1 receptor-associated kinase 4, sequence (Q9NWZ3 whole entry): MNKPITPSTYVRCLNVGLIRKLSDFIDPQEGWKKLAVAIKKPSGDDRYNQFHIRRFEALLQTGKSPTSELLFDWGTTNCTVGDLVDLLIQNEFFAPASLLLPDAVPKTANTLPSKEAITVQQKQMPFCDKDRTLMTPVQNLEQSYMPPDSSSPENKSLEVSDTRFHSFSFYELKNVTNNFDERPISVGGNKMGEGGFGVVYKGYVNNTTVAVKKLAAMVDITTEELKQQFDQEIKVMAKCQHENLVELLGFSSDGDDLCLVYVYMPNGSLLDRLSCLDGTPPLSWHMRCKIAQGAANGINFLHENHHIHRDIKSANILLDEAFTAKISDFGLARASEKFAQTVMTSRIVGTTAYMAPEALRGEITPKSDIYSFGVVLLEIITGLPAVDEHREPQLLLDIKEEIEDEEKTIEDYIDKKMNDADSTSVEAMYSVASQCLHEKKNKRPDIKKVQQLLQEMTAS
Ribosomal protein S6 kinase alpha-3, sequence (P51812 whole entry): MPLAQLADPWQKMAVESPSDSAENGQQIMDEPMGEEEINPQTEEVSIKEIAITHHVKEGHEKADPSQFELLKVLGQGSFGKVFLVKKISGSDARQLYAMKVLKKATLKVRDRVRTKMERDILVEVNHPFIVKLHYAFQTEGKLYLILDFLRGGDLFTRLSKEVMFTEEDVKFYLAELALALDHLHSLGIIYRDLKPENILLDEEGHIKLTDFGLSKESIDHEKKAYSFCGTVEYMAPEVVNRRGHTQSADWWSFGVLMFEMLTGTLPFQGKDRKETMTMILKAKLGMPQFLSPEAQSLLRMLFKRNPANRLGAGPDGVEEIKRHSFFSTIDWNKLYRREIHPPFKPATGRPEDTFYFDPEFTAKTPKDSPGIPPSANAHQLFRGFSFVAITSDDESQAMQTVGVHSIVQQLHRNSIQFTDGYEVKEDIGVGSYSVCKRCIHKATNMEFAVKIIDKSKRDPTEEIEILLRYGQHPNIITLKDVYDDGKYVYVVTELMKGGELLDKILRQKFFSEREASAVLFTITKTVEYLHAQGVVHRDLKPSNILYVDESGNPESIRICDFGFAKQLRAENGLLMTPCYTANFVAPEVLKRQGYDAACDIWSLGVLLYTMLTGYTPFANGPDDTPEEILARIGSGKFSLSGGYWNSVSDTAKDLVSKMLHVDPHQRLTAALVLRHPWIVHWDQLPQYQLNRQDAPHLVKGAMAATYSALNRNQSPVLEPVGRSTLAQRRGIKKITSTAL
Tyrosine-protein kinase ITK/TSK, sequence (Q08881 whole entry): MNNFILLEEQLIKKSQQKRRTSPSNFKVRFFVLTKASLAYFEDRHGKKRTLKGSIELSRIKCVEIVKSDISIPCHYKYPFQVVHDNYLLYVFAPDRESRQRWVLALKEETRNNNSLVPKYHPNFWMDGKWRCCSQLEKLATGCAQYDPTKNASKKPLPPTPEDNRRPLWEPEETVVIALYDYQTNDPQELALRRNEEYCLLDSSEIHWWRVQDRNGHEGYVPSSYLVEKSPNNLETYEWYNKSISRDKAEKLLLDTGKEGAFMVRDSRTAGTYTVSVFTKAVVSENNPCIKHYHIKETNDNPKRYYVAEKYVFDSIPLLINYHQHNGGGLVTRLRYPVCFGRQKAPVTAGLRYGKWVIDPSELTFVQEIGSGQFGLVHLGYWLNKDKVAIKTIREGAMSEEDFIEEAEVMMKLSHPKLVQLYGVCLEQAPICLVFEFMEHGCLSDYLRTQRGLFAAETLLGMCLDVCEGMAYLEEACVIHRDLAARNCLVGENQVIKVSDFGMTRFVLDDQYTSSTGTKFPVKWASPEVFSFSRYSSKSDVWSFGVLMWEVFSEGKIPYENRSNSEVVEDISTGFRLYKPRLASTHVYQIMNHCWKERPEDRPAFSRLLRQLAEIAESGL
Testis-specific serine/threonine-protein kinase 1, sequence (Q9BXA7 whole entry): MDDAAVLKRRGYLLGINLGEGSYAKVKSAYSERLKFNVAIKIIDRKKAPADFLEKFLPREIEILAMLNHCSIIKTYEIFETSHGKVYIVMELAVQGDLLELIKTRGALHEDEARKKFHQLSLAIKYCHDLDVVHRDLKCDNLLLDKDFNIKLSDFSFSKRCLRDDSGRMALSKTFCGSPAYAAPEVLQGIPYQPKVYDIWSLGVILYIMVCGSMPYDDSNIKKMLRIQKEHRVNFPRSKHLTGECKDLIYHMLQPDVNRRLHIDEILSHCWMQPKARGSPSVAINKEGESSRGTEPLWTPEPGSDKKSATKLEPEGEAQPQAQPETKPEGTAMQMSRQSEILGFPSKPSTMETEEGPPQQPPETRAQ
G2/mitotic-specific cyclin-B1, sequence (P14635 whole entry): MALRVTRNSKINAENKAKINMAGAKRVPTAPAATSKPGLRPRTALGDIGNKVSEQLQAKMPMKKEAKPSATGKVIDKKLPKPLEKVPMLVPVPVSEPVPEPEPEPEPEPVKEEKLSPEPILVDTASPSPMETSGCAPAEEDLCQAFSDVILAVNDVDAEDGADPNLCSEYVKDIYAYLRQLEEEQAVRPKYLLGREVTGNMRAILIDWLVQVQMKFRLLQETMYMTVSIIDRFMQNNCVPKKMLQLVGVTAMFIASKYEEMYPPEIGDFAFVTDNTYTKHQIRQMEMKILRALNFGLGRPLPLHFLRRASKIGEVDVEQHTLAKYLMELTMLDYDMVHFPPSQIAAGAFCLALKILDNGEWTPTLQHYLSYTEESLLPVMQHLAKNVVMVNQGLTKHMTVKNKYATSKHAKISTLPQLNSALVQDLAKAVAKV
STE20-like serine/threonine-protein kinase, sequence (Q9H2G2 whole entry): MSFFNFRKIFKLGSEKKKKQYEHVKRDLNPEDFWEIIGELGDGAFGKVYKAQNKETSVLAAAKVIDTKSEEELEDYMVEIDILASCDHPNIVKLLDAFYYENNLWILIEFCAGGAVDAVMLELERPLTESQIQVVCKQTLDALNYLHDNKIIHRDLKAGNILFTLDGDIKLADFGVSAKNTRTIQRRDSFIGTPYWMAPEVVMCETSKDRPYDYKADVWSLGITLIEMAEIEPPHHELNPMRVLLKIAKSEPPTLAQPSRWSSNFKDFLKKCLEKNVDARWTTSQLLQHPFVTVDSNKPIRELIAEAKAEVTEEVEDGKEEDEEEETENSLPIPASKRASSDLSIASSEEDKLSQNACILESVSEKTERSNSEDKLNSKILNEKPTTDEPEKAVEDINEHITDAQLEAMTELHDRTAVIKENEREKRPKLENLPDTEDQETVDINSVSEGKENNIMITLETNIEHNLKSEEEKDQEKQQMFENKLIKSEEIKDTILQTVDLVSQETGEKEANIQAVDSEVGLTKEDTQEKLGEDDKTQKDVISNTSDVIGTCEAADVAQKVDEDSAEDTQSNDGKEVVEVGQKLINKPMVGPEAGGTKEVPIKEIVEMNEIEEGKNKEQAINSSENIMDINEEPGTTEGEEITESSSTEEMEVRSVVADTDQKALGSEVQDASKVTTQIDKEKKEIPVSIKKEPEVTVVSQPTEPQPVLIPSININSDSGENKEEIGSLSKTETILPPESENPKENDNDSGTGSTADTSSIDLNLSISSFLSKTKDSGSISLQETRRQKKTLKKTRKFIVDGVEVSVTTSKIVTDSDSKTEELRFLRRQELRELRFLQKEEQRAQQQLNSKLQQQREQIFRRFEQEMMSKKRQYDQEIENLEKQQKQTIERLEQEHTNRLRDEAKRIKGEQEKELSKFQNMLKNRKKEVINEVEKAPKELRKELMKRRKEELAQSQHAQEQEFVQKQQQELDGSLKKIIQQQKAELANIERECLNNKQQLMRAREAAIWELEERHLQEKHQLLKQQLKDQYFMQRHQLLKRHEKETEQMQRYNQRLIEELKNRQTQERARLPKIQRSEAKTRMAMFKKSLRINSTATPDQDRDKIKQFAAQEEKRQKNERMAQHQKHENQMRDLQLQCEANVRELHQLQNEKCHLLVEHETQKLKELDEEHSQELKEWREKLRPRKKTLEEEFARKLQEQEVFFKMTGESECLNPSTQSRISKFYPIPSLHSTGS

Broadly, the IC50 is the concentration at which inhibition is half-maximal. With `Cc1ccc(C(=O)c2c(C)oc3c2C(=O)C(=O)c2ccccc2-3)cc1`, the IC50 on Hexokinase HKDC1 [1] is 6.94 µM (active).

By EC50 is commonly meant the concentration needed to bring the measured effect to its halfway point. What is called CC50 is the concentration that lowers cell viability or growth by half. Consider `Cc1ccc(Nc2cc(C)nn2-c2nc(C)cc(O)n2)cc1`, for which, in test [2], the EC50 is > 49.7 µM (not active). Besides, the CC50 in the test on HeLa was 7.59 µM (active).

By Ki is commonly meant the dissociation constant of the complex between target and ligand, obtained from inhibition or displacement. In the case of `O=C1NC(=S)SC1=C1C(=O)Nc2ccc(Br)cc21`, the Ki in test [3] is 7.94 µM (active); in test [4], 1.26 µM (active); in test [5], > 10 µM (inactive); in [6], 0.0501 µM (active); in test [7] it was > 10 µM (inactive); in [8], > 2.51 µM (inactive). For the same molecule, the Ki was > 10 µM (inactive) in test [9]; > 10 µM (inactive) in [10]; > 1.58 µM (inactive) in test [11]; > 7.94 µM (inactive) in test [12]; > 1.58 µM (inactive) in [13]; 0.794 µM (active) in test [14].

As for `Cc1cnc(NC(=O)c2sc3ccccc3c2Cl)s1`, the IC50 was 3.14 µM (active) on Caspase-3 and > 67.5 µM (inactive) in test [15].

Turning to `O=C1C(Cl)=C(NCc2cccnc2)C(=O)c2ccccc21`, the EC50 on Hexokinase HKDC1 [16] was 9.25 µM (active).

In the case of `CN(C)c1ncc(C2=C(Cl)C(=O)C(N3CCCC3)=C(Cl)C2=O)s1`, the EC50 in test [17] was 13.7 µM (active). Also, in test [18], the IC50 was 30.7 µM (inactive).
